# Measured values: US5300513A, “Carbostyril derivatives and pharmaceutical composition containing the same” (Otsuka Pharmaceutical Co., Ltd., priority 1990, dated 1994)
# Structures can show the parent of a compound that is named as a salt. Where two headings read alike, the source gives them in different places.
# Target: T1, V1 receptor (Rattus norvegicus, UniProt P30560)
# T1 construct: Using rat liver plasma membrane preparations; from tissue; host or cells: rat liver plasma membranes
# Assay: V1 receptor binding assay (inhibition of [3H]-Arg-vasopressin binding to rat liver plasma membrane)
# Experimental: Using rat liver plasma membrane preparations prepared according to Ichihara's method [cf: Akira Ichihara, J. Bio. […] After incubation, the mixture is filtered three times using the glass filter (GF/F) so as to separate the membrane preparation combined with vasopressin and then washed with the buffer (5 ml). This glass filter is taken out and mixed with liquid scintillation cocktail. The amount of [H]^3 -vasopressin combined with the membrane is measured by liquid scintillation counter and the rate of the inhibitory effect of the test compound is estimated according to the following equation. [formula]
# [1] = rat liver plasma membrane, [H]^3-Arg-vasopressin 2×10^-10 M, 37° C., 10 minutes, pH 8.0, read-out: IC50
# T1 sequence (P30560 whole entry): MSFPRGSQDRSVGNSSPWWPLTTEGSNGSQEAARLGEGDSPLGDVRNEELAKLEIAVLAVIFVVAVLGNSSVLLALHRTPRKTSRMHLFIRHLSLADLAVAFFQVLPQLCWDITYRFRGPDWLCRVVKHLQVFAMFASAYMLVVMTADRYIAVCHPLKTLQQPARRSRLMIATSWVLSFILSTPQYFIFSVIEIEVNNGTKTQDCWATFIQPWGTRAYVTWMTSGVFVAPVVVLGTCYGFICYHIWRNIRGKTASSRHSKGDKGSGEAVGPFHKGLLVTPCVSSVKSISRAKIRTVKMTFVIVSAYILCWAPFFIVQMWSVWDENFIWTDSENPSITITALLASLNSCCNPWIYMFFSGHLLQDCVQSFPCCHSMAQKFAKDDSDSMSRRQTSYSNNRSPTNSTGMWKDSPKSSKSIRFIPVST
SMILES,IC50 [1] [nM],IC50 [nM]
"O=C(c1ccc(OCCCCCN2CCC3(CCCCC3)CC2)cc1)N1CCC(N2C(=O)CCc3ccccc32)CC1 [Test Compound 1, 1-[1-{4-[5-(Cyclohexanespiro-4'-(1-piperidinyl))pentyloxy]benzoyl}-4-piperidinyl]-3,4-dihydrocarbostyril]",47,–
"O=C(c1ccc(OCCCCCNC23CC4CC(CC(C4)C2)C3)cc1)N1CCC(N2C(=O)CCc3ccccc32)CC1 [Test Compound 2, 1-{1-[4-(5-Tricyclo[3.3.1.1^3.7]decanylaminopentyloxy)benzoyl]-4-piperidinyl}-3,4-dihydrocarbostyril hydrochloride]",27,–
"O=C(c1ccc(OCCCCCNCC23CC4CC(CC(C4)C2)C3)cc1)N1CCC(N2C(=O)CCc3ccccc32)CC1 [Test Compound 3, 1-{1-[4-(5-Tricyclo[3.3.1.1^3.7]decanylmethylaminopentyloxy)benzoyl]-4-piperidinyl}-3,4-dihydrocarbostyri]",100,–
"O=C(c1ccc(OCCCCCNCC(F)(F)F)cc1)N1CCC(N2C(=O)CCc3ccccc32)CC1 [Test Compound 4, 1-[1-{4-[5-(2,2,2-Trifluoroethylamino)-pentyloxy)benzoyl}-4-piperidinyl}-3,4-dihydrocarbostyril]",320,–
"CCOC(=O)CC(=O)OCCN(C)CCCCCOc1ccc(C(=O)N2CCC(N3C(=O)CCc4ccccc43)CC2)cc1 [Test Compound 5, 1-[1-{4-[5-[N-Methyl-N-(2-ethoxycarbonylacetyloxyethyl)amino}pentyloxy]benzoyl}-4-piperidinyl]-3,4-dihydrocarbostyril]",110,–
"C=CCNCC(O)CCCCOc1ccc(C(=O)N2CCC(N3C(=O)CCc4ccccc43)CC2)cc1 (stereo not drawn) [Test Compound 6, 1-{1-[4-(5-Hydroxy-6-allylaminohexyloxy)benzoyl]-4-piperidinyl}-3,4-dihydrocarbostyril]",140,–
"NC1CCN(CCCCCOc2ccc(C(=O)N3CCC(N4C(=O)CCc5ccccc54)CC3)cc2)CC1 [Test Compound 7, 1-[1-{4-[5-(4-Amino-1-piperidinyl)pentyloxy)-benzoyl-}-4-piperidinyl]-3,4-dihydrocarbostyril]",28,–
"O=C(c1ccc(OCCCCCN2CCC(NC(=O)C(F)(F)F)CC2)cc1)N1CCC(N2C(=O)CCc3ccccc32)CC1 [Test Compound 8, 1-[1-{4-[5-(4-Trifluoroacetylamino-1-piperidinyl)pentyloxy]benzoyl}-4-piperidinyl]-3,4-dihydrocarbostyril]",63,–
"CC(=O)NC1CCN(CCCCCOc2ccc(C(=O)N3CCC(N4C(=O)CCc5ccccc54)CC3)cc2)CC1 [Test Compound 9, 1-[1-{4-[5-(4-Acetylamino-1-piperidinyl)-pentyloxy)benzoyl}-4-piperidinyl]-3,4-dihydrocarbostyril]",36,–
"CCN(CC)CC(CCCCOc1ccc(C(=O)N2CCC(N3C(=O)CCc4ccccc43)CC2)cc1)OC(=O)NC (stereo not drawn) [Test Compound 10, 1-{1-[4-(5-Methylaminocarbonyloxy-6-diethylaminohexyloxy)benzoyl]-4-piperidinyl}-3,4-dihydrocarbostyril]",38,–
"CCOc1ccc(C(=O)N2CCC(N3C(=S)CCc4ccccc43)CC2)c(OC)c1 [Test Compound 11, 1-[1-(2-Methoxy-4-ethoxybenzoyl)-4-piperidinyl]-3,4-dihydrothiocarbostyril]",730,–
"O=C(c1ccc(SCCCCCN2CCCC2)cc1)N1CCC(N2C(=O)CCc3ccccc32)CC1 [Test Compound 12, 1-[1-{4-[5-(1-Pyrrolidinyl)pentylthio]-benzoyl}-4-piperidinyl]-3,4-dihydrocarbostyril]",34,–
"O=C(c1ccc(-c2ccccn2)cc1)N1CCC(N2C(=O)CCc3ccccc32)CC1 [Test Compound 13, 1-{1-[4-(2-Pyridyl)benzoyl}-4-piperidinyl}-3,4-dihydrocarbostyril]",1200,–
"O=C(c1ccc(-c2ncc[nH]2)cc1)N1CCC(N2C(=O)CCc3ccccc32)CC1 [Test Compound 14, 1-{1-[4-(2-Imidazolyl)benzoyl}-4-piperidinyl}-3,4-dihydrocarbostyril]",1400,–
"Nc1ccccc1Sc1nccn1-c1ccc(C(=O)N2CCC(N3C(=O)CCc4ccccc43)CC2)cc1 [Test Compound 15, 1-[1-{4-[2-(2-Aminophenylthio)-1-imidazolyl]-benzoyl}-4-piperidinyl]-3,4-dihydrocarbostyril]",800,–
"C=CCSc1ccc(C(=O)N2CCC(N3C(=O)CCc4ccccc43)CC2)c(OC)c1 [Test Compound 16, 1-[1-(2-Methoxy-4-allylthiobenzoyl)-4-piperidinyl]-3,4-dihydrocarbostyril]",–,110
"O=C(c1ccc([S+]([O-])CCCCCN2CCCC2)cc1)N1CCC(N2C(=O)CCc3ccccc32)CC1 (stereo not drawn) [Test Compound 17, 1-[1-{4-[5-(1-Pyrrolidinyl)pentylsulfinyl)-benzoyl}-4-piperidinyl]-3,4-dihydrocarbostyril]",3000,–
"O=C(c1ccc(S(=O)(=O)CCCCCN2CCCC2)cc1)N1CCC(N2C(=O)CCc3ccccc32)CC1 [Test Compound 18, 1-[1-{4-[5-(1-Pyrrolidinyl)pentylsulfonyl]-benzoyl}-4-piperidinyl]-3,4-dihydrocarbostyril]",1900,–
"O=C(c1ccc(-c2nc3ccccc3[nH]2)cc1)N1CCC(N2C(=O)CCc3ccccc32)CC1 [Test Compound 19, 1-{1-[4-(2-Benzimidazolyl)benzoyl]-4-piperidinyl}-3,4-dihydrocarbostyril]",2100,–
"O=C(c1ccc(-n2ccnc2-c2ccccc2)cc1)N1CCC(N2C(=O)CCc3ccccc32)CC1 [Test Compound 20, 1-{1-[4-(2-Phenyl-1-imidazolyl)benzoyl]-4-piperidinyl}-3,4-dihydrocarbostyril]",2800,–
"COc1ccc(-c2nccn2-c2ccc(C(=O)N3CCC(N4C(=O)CCc5ccccc54)CC3)cc2)cc1 [Test Compound 21, 1-[1-{4-[2-(4-Methoxyphenyl)-1-imidazolyl]-benzoyl}-4-piperidinyl]-3,4-dihydrocarbostyril]",2700,–
